According to patent US20140065212A1, “COATED PHARMACEUTICAL COMPOSITION CONTAINING REGORAFENIB” (Bayer Healthcare LLC, priority 2012, published 2014):

Test: thermodynamic solubility of regorafenib monohydrate in different solvents
Type: physicochemical
Conditions: thermodynamic from solid
Description: Furthermore salts of the compound of formula (I) such as its hydrochloride, mesylate and phenylsulfonate are mentioned in WO 2005/009961. The monohydrate of the compound of formula (I) is mentioned in WO 2008/043446. An improved process for the manufacturing of regorafenib in high purity is described in WO 2011/128261. Due to the limited solubility of regorafenib monohydrate (see table 1) an applicable pharmaceutical composition containing regorafenib is in form of a solid dispersion as described in WO 2006/026500.

In the case of `CNC(=O)c1cc(Oc2ccc(NC(=O)Nc3ccc(Cl)c(C(F)(F)F)c3)c(F)c2)ccn1` [regorafenib monohydrate], the solubility (aqueous with cosolvent or surfactant or cyclodextrin, solvent: HPβ-Cyclodextrin/water (10:90)) is reported as under 100 µg/mL, the solubility (aqueous with cosolvent or surfactant or cyclodextrin, solvent: PEG 400/water (30:70)) is reported as 270 µg/mL and the solubility (light liquid paraffin, oil or lipid, solvent: Ligth liquid paraffin) is reported as under 100 µg/mL. It also gave a solubility (oil or lipid, solvent: Oleoylpolyethylenglycol glycerides) of 3600 µg/mL, a solubility (organic solvent or mixture, solvent: Ethanol) of 6400 µg/mL and a solubility (organic solvent or mixture, solvent: Polyethylenglycol (PEG) 400) of 67300 µg/mL. For the same compound, the solubility (solvent: Water) was under 100 µg/mL.
